This is an account of results in patent publication US20210254056A1, “IDENTIFICATION AND TARGETED MODULATION OF GENE SIGNALING NETWORKS” (CAMP4 THERAPEUTICS CORPORATION, priority 2017, published 2021).

For the first experiment, the system named is primary human hepatocytes. The experiment is described as follows: RNA-seq of primary human hepatocytes treated with 39 small molecules (pilot and validation). Conditions: RNA-seq, p-value≤0.05; primary human hepatocytes; the modulated genes are listed in the block.
Take `c1ccc(-c2[nH]ncc2-c2ccnc3ccccc23)nc1` [MT-740, LY 364947]: the “significant modulation of gene expression” value is given as “significantly (p-value≤0.05) modulate”.

In another experiment the test system is hepatocytes. The experiment in a line: RNA-seq of hepatocytes stimulated with the compounds of Table 68.
Details: not given
As to `CCCCCCCCCCCC(=O)OC[C@H](COP(=O)([O-])OCC[N+](C)(C)C)OC(=O)CCCCCCCCCCC` [DLPC], the “# of genes having significantly altered expression” value worked out at 4.

As for `CC1(C)CC=C(c2cnc3ccccc3c2)c2cc(C(=O)Nc3ccc(C(=O)O)cc3)ccc21` [BMS 195614], the “# of genes having significantly altered expression” value is reported as 46.

`COc1cccc(-n2c(=O)[nH]c3cc(Cl)n(-c4ccc(-c5cccc(OC)c5O)cc4)c3c2=O)c1` [GSK621]: the “# of genes having significantly altered expression” value is recorded as 5.

Take Pifithrin-μ: the “# of genes having significantly altered expression” value is 5377.

`C[C@@]1(C(=O)Nc2ccc(F)nc2)CCCN1c1nc(Nc2cc(C3CC3)n[nH]2)c2cccn2n1` [BMS-754807]: the “# of genes having significantly altered expression” value came out at 302.

As for `Cc1ccccc1N=Nc1ccc(NC(=O)c2ccnn2C)c(C)c1` [CH223191], the “# of genes having significantly altered expression” value amounted to 198.

For `CCCCCCCCCCCCCCCCOC[C@H](COP(=O)([O-])OCC[N+](C)(C)C)OC(C)=O` [PAF-C-16], the “# of genes having significantly altered expression” value is reported as 7.

In the case of `COc1cccc(-c2cc(NCc3ccc4c(c3)OCO4)nc(N)n2)c1` [Wnt agonist 1], the “# of genes having significantly altered expression” value worked out at 138.

Consider Varenicline tartrate, for which the “# of genes having significantly altered expression” value is recorded as 7.

As for `CCC1=C(C)CN(C(=O)NCCc2ccc(S(=O)(=O)NC(=O)N[C@H]3CC[C@H](C)CC3)cc2)C1=O` [Gilmepiride], the “# of genes having significantly altered expression” value is recorded as 39.

With `COCCOCOc1cc2ccc(-c3ccc(C(=O)O)cc3)cc2cc1C12CC3CC(CC(C3)C1)C2` [CD 2665], the “# of genes having significantly altered expression” value turned out to be 1102.

Take `CS[C@H]1SC[C@H]2C(=O)N(C)[C@@H](C(C)C)C(=O)OC[C@@H](NC(=O)c3cnc4ccccc4n3)C(=O)N[C@@H](C)C(=O)N(C)[C@@H]1C(=O)N(C)[C@@H](C(C)C)C(=O)OC[C@@H](NC(=O)c1cnc3ccccc3n1)C(=O)N[C@@H](C)C(=O)N2C` [Echinomycin]: the “# of genes having significantly altered expression” value is recorded as 7161.

For the compound `c1ccc2c(-c3cnn4cc(-c5ccc(N6CCNCC6)cc5)cnc34)ccnc2c1` [LDN193189], the “# of genes having significantly altered expression” value is reported as 67.

For the compound `[Cl][Co][Cl]` [Cobalt chloride], the “# of genes having significantly altered expression” value was 1275.

As to `O=C1NC(=O)/C(=C/c2cccc(C(F)(F)F)c2)S1` [SMI-4a], the “# of genes having significantly altered expression” value worked out at 1436.

`C[C@H]1[C@H]2N(C(=O)CN(C)N2C(=O)NCc2ccccc2)[C@@H](Cc2ccc(OP(=O)(O)O)cc2)C(=O)N1Cc1cccc2cccnc12` [PRI-724]: the “# of genes having significantly altered expression” value turned out to be 88.

Consider `CCN(CC)CCCC(C)Nc1ccnc2cc(Cl)ccc12` (centres unmarked) [Chloroquine phosphate], for which the “# of genes having significantly altered expression” value worked out at 573.

On to `Cc1cc(C(C)Nc2ccccc2)c2nc(N3CCOCC3)cc(=O)n2c1` (centres unmarked) [TGX-221], for which the “# of genes having significantly altered expression” value is on record as 1.

For `Oc1c(F)cc(-c2cnccc2-c2ccc(N3CCOCC3)cc2)cc1F` [LJI308], the “# of genes having significantly altered expression” value worked out at 1.

Consider `CCCCC/C=C\C/C=C\C/C=C\C/C=C\CCCC(=O)NCCCl` [ACEA], for which the “# of genes having significantly altered expression” value turned out to be 2.

For the compound `CCOC(=O)c1cncn1[C@H](C)c1ccccc1` [Etomidate], the “# of genes having significantly altered expression” value is reported as 2.

For the compound `OCc1ccc(-c2ccc(-c3ccc(CO)s3)o2)s1` [RITA (NSC 652287)], the “# of genes having significantly altered expression” value is given as 105.

The experiment is the same for the next values; noted with them: hepatocytes stimulated with the compound; RNA-seq; […].
Consider `Cc1ccc(NC(=O)c2ccc(CN3CCN(C)CC3)cc2)cc1Nc1nc(-c2cccnc2)cs1` [Mastinib], for which the “# of genes having significantly altered expression” value was determined as 151.

Staying with this experiment, now noted: hepatocytes stimulated with the compound; RNA-seq; significance: FPKM≥1, q-value≤0.05, log 2 fold change≥1.5.
On to `Cc1nc(Nc2ncc(C(=O)Nc3c(C)cccc3Cl)s2)cc(N2CCN(CCO)CC2)n1` [Dasatinib], for which the “# of genes having significantly altered expression” value came to 2970.

For the compound `O=C1CCC(N2C(=O)c3ccccc3C2=O)C(=O)N1` (centres unmarked) [Thalidomide], the “# of genes having significantly altered expression” value is 3092.

`C=C1/C(=C\C=C2/CCC[C@]3(C)[C@@H]([C@H](C)/C=C/C=C/C(O)(CC)CC)CC[C@@H]23)C[C@@H](O)C[C@@H]1O` [EB1089]: the “# of genes having significantly altered expression” value amounted to 68.

As for `S=C(NCc1ccc2c(c1)OCO2)N1CCN(c2ncnc3c2oc2ccccc23)CC1` [Amuvatinib], the “# of genes having significantly altered expression” value is recorded as 2835.

As for `COc1cc2c(cc1OC)-c1c(OC)c(OC)cc3ccnc(c13)C2=O` [Oxoglaucine], the “# of genes having significantly altered expression” value is listed as 31.

As for `Cc1[nH]c(/C=C2\C(=O)Nc3ccc(S(=O)(=O)Cc4c(Cl)cccc4Cl)cc32)c(C)c1C(=O)N1CCC[C@@H]1CN1CCCC1` [PHA-665752], the “# of genes having significantly altered expression” value came out at 1767.

`C=C(c1ccc(C(=O)O)cc1)c1cc2c(cc1C)C(C)(C)CCC2(C)C` [Bexarotene]: the “# of genes having significantly altered expression” value was 267.

Turning to `COCCOc1cnc2ccn([C@H](C)c3nnc4c(F)cc(-c5cnn(C)c5)cn34)c(=O)c2c1` [AMG337], the “# of genes having significantly altered expression” value turned out to be 3.

For the compound `Cc1c(C(=O)NN2CCCCC2)nn(-c2ccc(Cl)cc2Cl)c1-c1ccc(Cl)cc1` [Rimonabant], the “# of genes having significantly altered expression” value turned out to be 1392.

As to `CCNC1(C(N)=O)CCN(c2ncnc3c2nc(-c2ccccc2Cl)n3-c2ccc(Cl)cc2)CC1` [Otenabant], the “# of genes having significantly altered expression” value is given as 36.

Regarding `CC1(C)CCC(c2ccc(Cl)cc2)=C(CN2CCN(c3ccc(C(=O)NS(=O)(=O)c4ccc(N[C@H](CCN5CCOCC5)CSc5ccccc5)c(S(=O)(=O)C(F)(F)F)c4)cc3)CC2)C1` [ABT-263], the “# of genes having significantly altered expression” value was 1.

For `CN(C)C/C=C/C(=O)Nc1cc2c(Nc3ccc(F)c(Cl)c3)ncnc2cc1O[C@H]1CCOC1` [Afatinib], the “# of genes having significantly altered expression” value was determined as 2010.

As to `NCCc1c[nH]cn1` [Histamine], the “# of genes having significantly altered expression” value was 20.

With `CNC(=O)c1ccccc1Sc1ccc2c(/C=C/c3ccccn3)n[nH]c2c1` [Axitinib], the “# of genes having significantly altered expression” value is 5.

As to `C=C1/C(=C\C=C2/CCC[C@]3(C)[C@@H]([C@H](C)CCCC(C)(C)O)CC[C@@H]23)C[C@@H](O)C[C@@H]1O` [Calcitrol], the “# of genes having significantly altered expression” value was found to be 1950.

Turning to Activin, the “# of genes having significantly altered expression” value was 798.

Consider `O=c1cc(N2CCOCC2)oc2c(-c3ccccc3)cccc12` [LY294002], for which the “# of genes having significantly altered expression” value is listed as 981.

With `Oc1c2ccccc2c2c3c(cccc13)N=N2` [SP600125], the “# of genes having significantly altered expression” value amounted to 193.

As for `COc1ccc2[nH]c([S+]([O-])Cc3ncc(C)c(OC)c3C)nc2c1` (centres unmarked) [Omeprazole], the “# of genes having significantly altered expression” value was determined as 61.

As for `CNC(=O)c1cc(Oc2ccc(NC(=O)Nc3ccc(Cl)c(C(F)(F)F)c3)c(F)c2)ccn1` [Regorafenib], the “# of genes having significantly altered expression” value came out at 10.

With `C[C@@H](Oc1cc(-c2cnn(C3CCNCC3)c2)cnc1N)c1c(Cl)ccc(F)c1Cl` [Crizotinib], the “# of genes having significantly altered expression” value stood at 3265.

`C[C@@H]1CC(=O)c2c(ccc3c2C(=O)c2cccc(O)c2C3=O)C1` [STA-21]: the “# of genes having significantly altered expression” value is recorded as 6.

On to `COc1cc(Nc2c(C#N)cnc3cc(OCCCN4CCN(C)CC4)c(OC)cc23)c(Cl)cc1Cl` [Bosutinib], for which the “# of genes having significantly altered expression” value was 2184.
